Reference: US9040502B2, “Anti-XDR-TB drug, anti-MDR-TB drug, and combination anti-tuberculosis drug” (priority 2008, dated 2015)
Values after ≈ are worked out from the molar mass of the structure shown. Where two headings read alike, the source gives them in different places.

How the values were obtained:
[1] = tested on: Mycobacterium tuberculosis XDR-TB (0306-0206); format: cell-based; settings: Ratio Method
[2] = tested on: M. tuberculosis XDR-TB (0306-0206); format: in vivo, Mycobacterium tuberculosis in BALB/c mice; settings: BALB/c mice, i.v. infection; s.c., 14 doses; CPZEN-45 6.3-200 mg/kg, SM 25-200 mg/kg; Day 30
[3] = tested on: M. tuberculosis MDR (RFP, INH); experiment: MIC, agar multiple dilution method (Test Example 2); format: cell-based; settings: Mycobacterium tuberculosis, 336 h
[4] = tested on: M. tuberculosis MDR (RFP, INH, KM EB, TH, PAS, EVM); experiment: as above; format: cell-based; settings: Mycobacterium tuberculosis, 336 h
[5] = tested on: M. tuberculosis MDR (RFP, INH, KM, SM EB, TH); experiment: as above; format: cell-based; settings: Mycobacterium tuberculosis, 336 h
[6] = tested on: M. tuberculosis XDR (RFP, INH, KM EB, TH, PAS, EVM, LVFX); experiment: as above; format: cell-based; settings: Mycobacterium tuberculosis, 336 h

NC[C@H]1O[C@H](O[C@H]2[C@H](O)[C@@H](O[C@H]3O[C@H](CO)[C@@H](O)[C@H](N)[C@H]3O)[C@H](N)C[C@@H]2N)[C@H](O)[C@@H](O)[C@@H]1O [KM, kanamycin]
Determination (drug sensitivity) ([1]; drug concentration 20 μg/mL): R

N[C@@H]1CON=C1O [CS, cycloserine]
Determination (drug sensitivity) ([1]; drug concentration 30 μg/mL): S

CC[C@@H](CO)NCCN[C@@H](CC)CO [EB, ethambutol]
Determination (drug sensitivity) ([1]; drug concentration 2.5 μg/mL): R

Nc1ccc(C(=O)O)c(O)c1 [PAS, para-amino-salicylic acid]
Determination (drug sensitivity) ([1]; drug concentration 0.5 μg/mL): R

[H]/N=C(/N)N[C@H]1[C@H](O)[C@@H](O)[C@H](O[C@@H]2O[C@@H](C)[C@](O)(C=O)[C@H]2O[C@@H]2O[C@@H](CO)[C@H](O)[C@@H](O)[C@@H]2NC)[C@@H](N/C(N)=N\[H])[C@@H]1O [SM, streptomycin]
Determination (drug sensitivity) ([1]; drug concentration 10 μg/mL): R | Antibacterial effects (number of tuberculosis bacteria in lungs, liver and spleen, FIGS. 3 to 5) [2]: no antibacterial effects

C[C@H]1COc2c(N3CCN(C)CC3)c(F)cc3c(=O)c(C(=O)O)cn1c23 [LVFX, levofloxacin]
Determination (drug sensitivity) ([1]; drug concentration 1.0 μg/mL): R

CO[C@H]1/C=C/O[C@@]2(C)Oc3c(C)c(O)c4c(O)c(c(/C=N/N5CCN(C)CC5)c(O)c4c3C2=O)NC(=O)/C(C)=C\C=C\[C@H](C)[C@H](O)[C@@H](C)[C@@H](O)[C@@H](C)[C@H](OC(C)=O)[C@@H]1C [RFP, rifampicin]
Determination (drug sensitivity) ([1]; drug concentration 40 μg/mL): R | MIC [3]: > 40 µg/mL | MIC [4]: > 40 µg/mL | MIC [5]: > 40 µg/mL | MIC [6]: > 40 µg/mL

enviomycin [EVM]
Determination (drug sensitivity) ([1]; drug concentration 20 μg/mL): R

CCc1cc(C(N)=S)ccn1 [TH, ethionamide]
Determination (drug sensitivity) ([1]; drug concentration 20 μg/mL): R

NNC(=O)c1ccncc1 [INH, isonicotinic acid hydrazide]
Determination (drug sensitivity) ([1]; drug concentration 1.0 μg/mL): R

CCCCc1ccc(NC(=O)C2=CCN(C)[C@@H]([C@H](O[C@@H]3O[C@H](CN)[C@@H](O)[C@H]3O)[C@H]3O[C@@H](n4ccc(=O)[nH]c4=O)[C@H](O)[C@@H]3O)C(=O)N2C)cc1 [CPZEN-45, (S)-2-{[(2S,3R,4S,5R)-(5-aminomethyl-3,4-dihydroxyoxolan-2-yl)oxy][(2S,3S,4R,5R)-5-(2,4-dioxo-1,2,3,4-tetrahydropyrimidin-1-yl)-3,4-dihydroxyoxolan-2-yl]-(S)-methyl}-N-(4-butylphenyl)-1,4-dimethyl-3-oxo-1H-1,4-diazepine-5-carboxamide]
Antibacterial effects (number of tuberculosis bacteria in lungs, liver and spleen, FIGS. 3 to 5) [2]: antibacterial effects significantly higher than those of SM | MIC [3]: 6.25 µg/mL (≈ 9.07 µM) | MIC [4]: 6.25 µg/mL (≈ 9.07 µM) | MIC [5]: 6.25 µg/mL (≈ 9.07 µM) | MIC [6]: 6.25 µg/mL (≈ 9.07 µM)
